Read-outs that look alike come from different tables or passages of the source.
System: human articular chondrocytes
Experiment: Radioimmunoassay of cartilaginous proteoglycans (PG) produced in tridimensional culture of human chondrocytes
Format: cell-based
Conditions: for PG in the clusters over 12 days: 0-12 days
From the text: The model used for testing the proanthocyanidols, namely the tridimensional culture of human chondrocytes allows chondrorepair to be quantified by the production of matrix substances: type II collagen, proteoglycans, and chondroresorption by the reduction in the levels of prostaglandin E2 and of OH° and O°2 type free radicals produced.
1. Tridimensional culture of human chondrocytes
The technique used has been described in detail (Bassleer et al., 1986).
Briefly, human articular chondrocytes are cultivated in DMEM (Dulbecco's Modification of Eagle's Medium--ICN--Gand, Belgium) with either Ultroser G 1% (GIBCO, Gand, Belgium) or 10% of foetal calf serum (ICN--Gand--Belgium), and 50 μg of ascorbic acid/ml added to it. The cartilage originates from the apparently normal zone of heads of human femur suffering from arthrosis, immediately after an operation carried out to insert a total hip prosthesis; it can also originate from the head of a healthy femur, but which has undergone a traumatism and has had to be replaced. This cartilage is then digested by clostridial collagenase 1 mg/ml (Boehringer-Mannheim, Germany) in a buffer (NaCl 120 mM, CaCl2 1 mM, KCl 5 mM, KH2 PO4 1 mM, NaHCO3 25 mM, glucose 2 mM and Hepes 30 mM, pH 7.4) for 24 hours. After 6 successive washings and centrifugations, the chondrocytes, isolated from their matrix, are cultured in flasks (10^6 cells/2 ml of culture medium) placed on a gyrator (10 rpm). The cultures are kept at 37° C. in an atmosphere of air 95%-CO2 5% (Bassleer et al., 1986). Cultivated under these conditions, after 4 to 5 days the chondrocytes form a tridimensional cluster in each flask. These clusters, which at first have a flocculent appearance, then tend to condense during the culture. After two weeks, their diameter is, in general, from 1 to 2 mm.
The fresh weight of the clusters increases with the duration of the culture, above all during the few first days.
2. Radioimmunoassay of cartilaginous proteoglycans (PG)
The PGs are measured with a radioimmunoassay (RIA) which is specific and sensitive to human cartilaginous PGs (Gysen et al. 1984). The PGs were extracted from human cartilage, according to the methods described by Roughley et al., (1981) and by Bayliss and Venn (1980). The antiserum against the cartilaginous PGs was obtained from the rabbit according to the technique of Vaitukaitis et al. (1971). The radioimmunoassay is carried out in a 0.4 ml volume consisting of 0.1 ml of tracer solution (15000 to 20000 cpm ^125 I-PG, labelled by the chloramine T method (Greenwood, 1973). 0.1 ml of anti-PG antiserum diluted to 1/5000 in phosphate-buffered saline (PBS-50 mM PO4, 150 mM NaCl ), containing BSA (5 g/l bovine serum albumin and 6.7 mM sodium azide) (incubation buffer) and 0.2 ml of several dilutions of the culture medium or of the cluster extract or also of the antigen (0.5 -500 ng/tube).
After four days at 4° C., the free PGs* (radioactive PGs) are separated from the PG*-antibody complexes by double precipitation (Franchimont et al., 1983).
The sensitivity of the assay is 0.6 ng/tube. The accuracy of measurement is of the order of 4%. The coefficients of the intra- and inter assay variation are less than 10% and 20% respectively.
The antibodies are directed against the antigenic determinants of the central protein of PG. There is a complete crossed reaction with human PGs of cartilage from the ribs, vertebral disks and trachea, even with PGs extracted from veins or arteries. There is no cross reaction with glycosaminoglycans or with PGs extracted from foetal tissues or the small PGs from bone.
The PGs are measured directly in the culture medium. As for the chondrocyte clusters, they are washed 3 times in a phosphate-buffered saline (PBS-50 mM PO4, 150 mM NaCl pH 7.4) containing protease inhibitors (Oegema et al., 1975:100 mM 6-aminohexanoic acid, 10 mM EDTA, 50 mM benzamidine hydrochloride, 5.10^-8 M trypsin inhibitor, 6.7 mM sodium azide and 200 U/ml superoxide dismutase). […]

For `Oc1cc(O)c2c(c1)O[C@H](c1cc(O)c(O)c(O)c1)[C@@H](O)[C@@H]2c1c(O)cc(O)c2c1O[C@H](c1cc(O)c(O)c(O)c1)[C@@H](O)[C@@H]2c1c(O)cc(O)c2c1O[C@H](c1cc(O)c(O)c(O)c1)[C@@H](O)C2` [Substance Ic, GC-(4 alpha→8) GC-(4 a→8)-GC], which “PG in the clusters over 12 days” value (1% Ultroser G, 1 μg/ml) is on record?
The value was 886 ± 114 ng/μg DNA.

And the “PG in the clusters over 12 days” value (1% Ultroser G, 10 μg/ml)?
Its value is 1046 ± 74 ng/μg DNA.

What about the “PG in the clusters over 12 days” value (1% Ultroser G, 100 μg/ml) of the same molecule?
Its value is 1184 ± 33 ng/μg DNA.

And the “PGs released in the culture medium, effect in words” value (1% Ultroser G, 1 μg/ml)?
The value was “significant effect”.

What about the “PGs released in the culture medium” value (1% Ultroser G, culture time 0-4 days, 1 μg/ml) of the same molecule?
The value was 15.9 ± 1.15 μg/μg DNA/96 h.

And the “PGs released in the culture medium” value (1% Ultroser G, culture time 0-4 days, 10 μg/ml)?
The value was 19.1 ± 1.2 μg/μg DNA/96 h.

And the “PGs released in the culture medium” value (1% Ultroser G, culture time 0-4 days, 100 μg/ml)?
Its value is 21.1 ± 1.0 μg/μg DNA/96 h.

And the “PGs released in the culture medium” value (1% Ultroser G, culture time 4-8 days, 1 μg/ml)?
The value was 3.7 ± 0.15 μg/μg DNA/96 h.

What about the “PGs released in the culture medium” value (1% Ultroser G, culture time 4-8 days, 10 μg/ml) of the same molecule?
Its value is 4.4 ± 0.52 μg/μg DNA/96 h.

And the “PGs released in the culture medium” value (1% Ultroser G, culture time 4-8 days, 100 μg/ml)?
Its value is 4.9 ± 0.45 μg/μg DNA/96 h.

And the “PGs released in the culture medium” value (1% Ultroser G, culture time 8-12 days, 1 μg/ml)?
The value was 1.32 ± 0.7 μg/μg DNA/96 h.

What about the “PGs released in the culture medium” value (1% Ultroser G, culture time 8-12 days, 10 μg/ml) of the same molecule?
Its value is 1.53 ± 0.15 μg/μg DNA/96 h.

What about the “PGs released in the culture medium” value (1% Ultroser G, culture time 8-12 days, 100 μg/ml) of the same molecule?
Its value is 1.75 ± 0.05 μg/μg DNA/96 h.

What about the “Proteoglycans released during the 12 days of culture, Abs” value (1% Ultroser G, cumulative, 1 μg/ml) of the same molecule?
Its value is 20.9 μg/μg DNA/12 days.

And the “Proteoglycans released during the 12 days of culture, Abs” value (1% Ultroser G, cumulative, 10 μg/ml)?
The value was 25 μg/μg DNA/12 days.

What about the “Proteoglycans released during the 12 days of culture, Abs” value (1% Ultroser G, cumulative, 100 μg/ml) of the same molecule?
The value was 27.8 μg/μg DNA/12 days.

And the “Concentrations of PG in the clusters, effect in words” value (1% Ultroser G, three concentrations studied)?
Its value is “significantly stimulated and in a dose-dependent way”.

What about the activity at 1 µg/mL (Homo sapiens, Chondrocyte, 288 h, 1% Ultroser G, cumulative, 1 μg/ml, control = 100, read-out: Proteoglycans released during the 12 days of culture, %) of the same molecule?
Its activity at 1 µg/mL is 127%.

And the activity at 10 µg/mL (Homo sapiens, Chondrocyte, 288 h, 1% Ultroser G, cumulative, 10 μg/ml, control = 100, read-out: Proteoglycans released during the 12 days of culture, %)?
The activity at 10 µg/mL was 150%.

What about the activity at 100 µg/mL (Homo sapiens, Chondrocyte, 288 h, 1% Ultroser G, cumulative, 100 μg/ml, control = 100, read-out: Proteoglycans released during the 12 days of culture, %) of the same molecule?
The activity at 100 µg/mL was 170%.

And the activity at 10 µg/mL (Homo sapiens, Chondrocyte, foetal calf serum, Table 14, 0-4 days, 10 μg/ml, control = 100%, read-out: PG in the culture medium, % of control)?
Its activity at 10 µg/mL is 120%.

What about the activity at 100 µg/mL (Homo sapiens, Chondrocyte, foetal calf serum, Table 14, 0-4 days, 100 μg/ml, control = 100%, read-out: PG in the culture medium, % of control) of the same molecule?
The activity at 100 µg/mL was 160%.

What about the activity at 10 µg/mL (Homo sapiens, Chondrocyte, foetal calf serum, Table 14, 4-8 days, 10 μg/ml, control = 100%, read-out: PG in the culture medium, % of control) of the same molecule?
The activity at 10 µg/mL was 118%.

What about the activity at 100 µg/mL (Homo sapiens, Chondrocyte, foetal calf serum, Table 14, 4-8 days, 100 μg/ml, control = 100%, read-out: PG in the culture medium, % of control) of the same molecule?
The activity at 100 µg/mL was 121%.

What about the activity at 10 µg/mL (Homo sapiens, Chondrocyte, foetal calf serum, Table 15, 0-4 days, 10 μg/ml, control = 100%, read-out: PG in the culture medium, % of control) of the same molecule?
The activity at 10 µg/mL was 132%.

What about the activity at 100 µg/mL (Homo sapiens, Chondrocyte, foetal calf serum, Table 15, 0-4 days, 100 μg/ml, control = 100%, read-out: PG in the culture medium, % of control) of the same molecule?
The activity at 100 µg/mL was 140%.

And the activity at 10 µg/mL (Homo sapiens, Chondrocyte, foetal calf serum, Table 15, 4-8 days, 10 μg/ml, control = 100%, read-out: PG in the culture medium, % of control)?
The activity at 10 µg/mL was 117%.

What about the activity at 100 µg/mL (Homo sapiens, Chondrocyte, foetal calf serum, Table 15, 4-8 days, 100 μg/ml, control = 100%, read-out: PG in the culture medium, % of control) of the same molecule?
The activity at 100 µg/mL was 138%.

And the activity at 10 µg/mL (Homo sapiens, Chondrocyte, foetal calf serum, Table 16, 0-8 days, 10 μg/ml, control = 100%, read-out: PG in the clusters over 8 days, % of control)?
Its activity at 10 µg/mL is 117%.

And the activity at 100 µg/mL (Homo sapiens, Chondrocyte, foetal calf serum, Table 16, 0-8 days, 100 μg/ml, control = 100%, read-out: PG in the clusters over 8 days, % of control)?
Its activity at 100 µg/mL is 132%.

And the activity at 10 µg/mL (Homo sapiens, Chondrocyte, foetal calf serum, Table 17, 0-8 days, 10 μg/ml, control = 100%, read-out: PG in the clusters over 8 days, % of control)?
Its activity at 10 µg/mL is 125%.

What about the activity at 100 µg/mL (Homo sapiens, Chondrocyte, foetal calf serum, Table 17, 0-8 days, 100 μg/ml, control = 100%, read-out: PG in the clusters over 8 days, % of control) of the same molecule?
Its activity at 100 µg/mL is 139%.

And the “PGs in the clusters, effect in words” value (foetal calf serum, 10 and 100 μg/ml)?
The value was “significantly increased”.

What about the “PG in the culture medium” value (foetal calf serum, Table 14, 0-4 days, 10 μg/ml) of the same molecule?
Its value is 7.8 ± 1.51 μg/μg DNA - 96 H.

And the “PG in the culture medium” value (foetal calf serum, Table 14, 0-4 days, 100 μg/ml)?
Its value is 10.4 ± 1.19 μg/μg DNA - 96 H.

What about the “PG in the culture medium” value (foetal calf serum, Table 14, 4-8 days, 10 μg/ml) of the same molecule?
The value was 2.34 ± 0.08 μg/μg DNA - 96 H.

And the “PG in the culture medium” value (foetal calf serum, Table 14, 4-8 days, 100 μg/ml)?
Its value is 2.40 ± 0.35 μg/μg DNA - 96 H.

And the “PG in the culture medium” value (foetal calf serum, Table 15, 0-4 days, 10 μg/ml)?
The value was 7.0 ± 1.19 μg/μg DNA - 96 H.

And the “PG in the culture medium” value (foetal calf serum, Table 15, 0-4 days, 100 μg/ml)?
Its value is 7.5 ± 0.96 μg/μg DNA - 96 H.

And the “PG in the culture medium” value (foetal calf serum, Table 15, 4-8 days, 10 μg/ml)?
Its value is 2.0 ± 0.17 μg/μg DNA - 96 H.

What about the “PG in the culture medium” value (foetal calf serum, Table 15, 4-8 days, 100 μg/ml) of the same molecule?
Its value is 2.4 ± 0.25 μg/μg DNA - 96 H.

What about the “PG in the clusters over 8 days” value (foetal calf serum, Table 16, 0-8 days, 10 μg/ml) of the same molecule?
The value was 915 ± 75 ng/μg DNA.

And the “PG in the clusters over 8 days” value (foetal calf serum, Table 16, 0-8 days, 100 μg/ml)?
The value was 1035 ± 121 ng/μg DNA.

What about the “PG in the clusters over 8 days” value (foetal calf serum, Table 17, 0-8 days, 10 μg/ml) of the same molecule?
The value was 718.2 ± 62.61 ng/μg DNA.

What about the “PG in the clusters over 8 days” value (foetal calf serum, Table 17, 0-8 days, 100 μg/ml) of the same molecule?
Its value is 799.5 ± 85.9 ng/μg DNA.
